# From US12054752B2, “HLA-A2 subtype-specific PLK1-derived epitope inducing antigen-specific t cell immune response to PLK1 protein” (THE CATHOLIC UNIVERSITY OF KOREA INDUSTRY-ACADEMIC …, priority 2017, dated 2024)
# How the values were obtained:
# [1] = system: T2 cell lines expressing HLA-A2 molecules; assay: IFN-γ EliSpot of spleen CD8+T cells from mice electroporated with multi-epitope PLK1 recombinant DNA, against T2 cells sensitized with each epitope peptide; format: cell-based, HLA-A2 transgenic mice; settings: CD8+T cells of spleens after electroporation with PLKWT / PLKOPT recombinant DNA 3 times at 7-day intervals, FIGS. 2A and 2B
# From the text: FIGS. 2A and 2B illustrate the EliSpot results confirming immune responses occurring in the spleen after HLA-A2 transgenic mice are subjected to electroporation with a recombinant DNA (FIG. 2A) including multiple wild-type PLK1 epitopes and a recombinant DNA (FIG. 2B) including multiple PLK1 epitopes optimized for recombination.
# In order to use a DNA-based vaccination strategy inducing multi-epitope-specific T cell immune responses, an amino acid sequence of the predicted PLK1-derived HLA-A2 multi-epitope was linked to a furin-sensitive linker (SGSG) amino acid sensitive to a proteolytic enzyme of the Golgi apparatus and cloned into a pCI expression vector (see FIG. 1).
# Recombinant DNA, PLKWT and PLKOPT were transfected into HLA-A2 transgenic mice and biological electric shock therapy was performed at 95 V (4×65 ms pulses with repoling) using an Electro square wave electroporation device (ECM830; BTX; San Diego, CA). After the biological electric shock therapy was performed 3 times at 7-day intervals, CD8+T cells of mouse spleens were isolated. IFN-γ EliSpot was performed by sensitizing T2 cell lines expressing HLA-A2 molecules with each predicted epitope peptide and using T2 cell lines as a target cell.
# CD8+T cells = assay: Flow cytometry of spleen CD8+T cells expressing IFN-γ and CD107a/b after dendritic cell vaccination and peptide-based TriVax vaccination; format: in vivo, HLA-A2 transgenic mice; settings: spleen T cells cultured with PLK1 antigen; compared to the groups using PLK1477 and PLK1541 antigen-peptides; FIG. 3
# From the text: FIG. 3 illustrates flow cytometry analysis results confirming CD8+T cell immune responses of PLK1123 (SDFVFVVLEL, SEQ ID NO: 1), PLK1477 (TLLKYFRNYM, SEQ ID NO: 2), and PLK1541/21 (LILCPLMAAV, SEQ ID NO: 3) among PLK-1-derived epitope candidates specific for HLA-A2 with CD107a/b.
# Next, HLA-A2-binding PLK1123 (SDFVFVVLEL, SEQ ID NO: 1), PLK1477 (TLLKYFRNYM, SEQ ID NO: 2), and PLK1541 (LILCPLMAAV, SEQ ID NO: 3) peptides confirmed as dominant epitopes were selected in a multi-epitope DNA-based vaccination experiment in the HLA-A2 transgenic mice, and immunized into the HLA-As transgenic mice by a dendritic cell vaccination and peptide-based TriVax vaccination (CD40 antibody/Poly-IC/epitope) strategy. After an immune response to each epitope-peptide was induced through this, T cells of the spleens were obtained and each cultured with a PLK1 antigen, and then CD8+T cells expressing IFN-γ and CD107a/b were confirmed using flow cytometry.
# [2] = system: T2 cell lines and HLA-A2 positive tumor cells; assay: IFN-γ EliSpot of CD8+T cells from peptide-immunized mice against peptide-sensitized T2 cells and tumor cells; format: in vivo, HLA-A2 transgenic mice; settings: targets CCRF-SB, THP-1, SKM-1, SK-MEL-5 (HLA-A2 positive), HL-60 and SK-MEL-3 (HLA-A2 negative), FIG. 4A to 4C
# From the text: FIG. 4A to 4C illustrate the EliSpot results confirming immune responses occurring by immunization of HLA-A2 transgenic mice with PLK1123 (SDFVFVVLEL, SEQ ID NO: 1)(FIG. 4A), PLK1477 (TLLKYFRNYM, SEQ ID NO: 2)(FIG. 4B), and PLK1541/21 (LILCPLMAAV, SEQ ID NO: 3)(FIG. 4C) among PLK1-derived epitope candidates specific for HLA-2 by a dendritic cell vaccination and peptide-based vaccination strategy.
# In order to examine CD8+T cell immune responses, an immune response occurring in the spleen was confirmed by immunization into HLA-A2 transgenic mice by a dendritic cell vaccination and peptide-based vaccination strategy. For this purpose, HLA-A2-binding PLK1123 ([…], SEQ ID NO: 1), PLK1477 (TLLKYFRNYM, SEQ ID NO: 2), and PLK1541 (LILCPLMAAV, SEQ ID NO: 3) peptides confirmed as dominant epitopes were selected in a multi-epitope DNA-based vaccination experiment in the HLA-A2 transgenic mice, and immunized into the HLA-As transgenic mice by a dendritic cell vaccination and peptide-based TriVax vaccination (CD40 antibody/Poly-IC/epitope) strategy. After an immune response to each epitope-peptide was induced through this, CD8+T cells were obtained by antibody-binding magnetic cell sorting, and used as effector cells for confirming an antigen-specific T cell response. […]
Sequence,ability to produce IFN-γ by the activation of CD8+T cells for T2 cell lines sensitized with each epitope peptide [1],rate of antigen-specific CD8+T cells (IFN-γ and CD107a/b) (CD8+T cells),CD8+T cell responses specific for T2 cell lines and HLA-A2 positive tumor cells sensitized with PLK1-derived antigen-peptides [2]
LILCPLMAAV (Human Polo-like kinase-1) [PLK1541 21],high levels,–,–
ILCPLMAAV (Human Polo-like kinase-1) [PLK1542],high levels,–,–
TLLKYFRNYM (Human Polo-like kinase-1) [PLK1477],high levels,–,–
SDFVFVVLEL (Human Polo-like kinase-1) [PLK1123],high levels,relatively high rate,observed
